From publication PMC7736581, “Activation of the IRE1 RNase through remodeling of the kinase front pocket by ATP-competitive ligands” (Nature Communications, 2020)
Read-outs that look alike come from different tables or passages of the source.

Key:
[1] = target: Inositol-Requiring Enzyme 1 (IRE1) (Homo sapiens, UniProt O75460); assay: biochemical; parameters: gene ERN1; IRE1 cytoplasmic kinase-RNase construct; kinetic fluorescence RNA cleavage (FAM/BHQ XBP1 stem-loop) by IRE1 LKR Q470-L977
Description: A 5′-Carboxyfluorescein (FAM)-and 3′-Black Hole Quencher (BHQ)-labeled single stem-loop mini-substrate containing XBP1 sequence (sequence reported in Supplementary Table 4) was used as substrate for cleavage by IRE1 LKR (Q470-L977) or IRE1 KR (G547-L977) in 20 mM HEPES pH 7.5, 50 mM potassium acetate, 1 mM magnesium acetate, 1 mM dithiothreitol, 0.05% v/v TritonX-100. Concentrations were as follows: 8 nM IRE1 LKR and 200 nM RNA substrate; 22 nM IRE1 KR-0P and 200 nM RNA substrate; 2 nM IRE1 KR 3P and 500 nM RNA substrate. RNA cleavage was measured kinetically over an hour at room temperature as an increase in fluorescence. The final reaction was carried out in 20 µL in 384-well plates. Samples were run in duplicate. To investigate whether this peculiar conformation had any role in the mechanism of activation of G-1749, we evaluated different tails to substitute the ethyl carbamate on the naphthyl moiety (Fig. 3, Supplementary Table 2). […] This is likely due to clashes with residues lining the front pocket, which in turn would force the tails to occupy the back pocket and break the salt bridge, thereby causing RNase inhibition. […] Experiments in KMS-11 cells (Fig. 3b, c, right panels) confirmed the effect of these tail modifications on IRE1 RNase activation. […] The chemical substituents tolerated by the front pocket seem to be very limited: even a minor substitution of the carbamate oxygen atom to a larger [compound left out], from ethyl carbamate to propyl amide (compound 6), or from methyl carbamate to methyl or ethyl amide (compound 4 or 5, respectively), or increasing the tail length by one atom, from ethyl to propyl carbamate (compound 11), is enough to impart a switch from activation to inhibition (Fig. 3b, c). […] RNA cleavage was measured by a kinetic fluorescence assay using an XBP1-like RNA hairpin substrate and IRE1 LKR construct (Q470-L977). Background from the no-protein control was subtracted from signal before calculating fold change. Source data are provided as a Source Data file. Data are presented as the mean for measurements from two independent experiments (n = 2). c RNA levels for IRE1 RNase product XBP1s measured by bDNA assay of lysates from KMS-11 cells treated with compounds for 4 h. Background from the no-RNA control was subtracted from signal before calculating fold change. Source data are provided as a Source Data file. Data are presented as the mean for measurements from two independent experiments (n = 2). d, e Analytical Ultracentrifugation sedimentation velocity (SV-AUC) experiments for (d), IRE1 LKR (Q470-L977) unphosphorylated and autophosphorylated and (e), IRE1 LKR unphosphorylated in the presence of slight excess G-9807 and G-1749. Calculated sedimentation coefficients for IRE1 monomer (3.1 svedbergs) and dimer (4.6 svedbergs) are highlighted by dotted lines. Source data are provided as a Source Data file.

[2] = test system: T1, IRE1 (endogenous, KMS-11); assay: cells; parameters: XBP1s mRNA by branched DNA assay in KMS-11 cell lysates after compound treatment; conditions: Homo sapiens, KMS-11, 4 h
T1 construct: endogenous full-length in KMS-11 cells
Description: 15-20k KMS-11 cells in RPMI growth media were seeded into 96-well plates and treated with compounds or DMSO control over a period of 4 h the following day. RNA levels of XBP1s and DGAT2 in KMS-11 cell lysates were measured using the QuantiGene 2.0 bDNA assay technology (Thermofisher). See Supplementary Table 4 for sequences of relevant capture probes. Data analysis was carried out against an assay background control with no cell lysate (no-RNA control). In the case of AMG-18, cells were also stimulated with thapsigargin (Tg, 100 nM) 30 min after compound addition. No Tg was used when treating cells with all other compounds. Samples were run in duplicate. To investigate whether this peculiar conformation had any role in the mechanism of activation of G-1749, we evaluated different tails to substitute the ethyl carbamate on the naphthyl moiety (Fig. 3, Supplementary Table 2). […] This is likely due to clashes with residues lining the front pocket, which in turn would force the tails to occupy the back pocket and break the salt bridge, thereby causing RNase inhibition. […] Experiments in KMS-11 cells (Fig. 3b, c, right panels) confirmed the effect of these tail modifications on IRE1 RNase activation. […] The chemical substituents tolerated by the front pocket seem to be very limited: even a minor substitution of the carbamate oxygen atom to a larger [compound left out], from ethyl carbamate to propyl amide (compound 6), or from methyl carbamate to methyl or ethyl amide (compound 4 or 5, respectively), or increasing the tail length by one atom, from ethyl to propyl carbamate (compound 11), is enough to impart a switch from activation to inhibition (Fig. 3b, c). […] RNA cleavage was measured by a kinetic fluorescence assay using an XBP1-like RNA hairpin substrate and IRE1 LKR construct (Q470-L977). Background from the no-protein control was subtracted from signal before calculating fold change. Source data are provided as a Source Data file. Data are presented as the mean for measurements from two independent experiments (n = 2). c RNA levels for IRE1 RNase product XBP1s measured by bDNA assay of lysates from KMS-11 cells treated with compounds for 4 h. Background from the no-RNA control was subtracted from signal before calculating fold change. Source data are provided as a Source Data file. Data are presented as the mean for measurements from two independent experiments (n = 2). d, e Analytical Ultracentrifugation sedimentation velocity (SV-AUC) experiments for (d), IRE1 LKR (Q470-L977) unphosphorylated and autophosphorylated and (e), IRE1 LKR unphosphorylated in the presence of slight excess G-9807 and G-1749. Calculated sedimentation coefficients for IRE1 monomer (3.1 svedbergs) and dimer (4.6 svedbergs) are highlighted by dotted lines. Source data are provided as a Source Data file.

[3] = RNase activation, read-out: EC50 (RNase biochemical assay), activators
[4] = XBP1s mRNA increase, read-out: EC50 (KMS-11 bDNA assay, XBP1s), activators

Chain of Inositol-Requiring Enzyme 1 (IRE1) (O75460 547-977): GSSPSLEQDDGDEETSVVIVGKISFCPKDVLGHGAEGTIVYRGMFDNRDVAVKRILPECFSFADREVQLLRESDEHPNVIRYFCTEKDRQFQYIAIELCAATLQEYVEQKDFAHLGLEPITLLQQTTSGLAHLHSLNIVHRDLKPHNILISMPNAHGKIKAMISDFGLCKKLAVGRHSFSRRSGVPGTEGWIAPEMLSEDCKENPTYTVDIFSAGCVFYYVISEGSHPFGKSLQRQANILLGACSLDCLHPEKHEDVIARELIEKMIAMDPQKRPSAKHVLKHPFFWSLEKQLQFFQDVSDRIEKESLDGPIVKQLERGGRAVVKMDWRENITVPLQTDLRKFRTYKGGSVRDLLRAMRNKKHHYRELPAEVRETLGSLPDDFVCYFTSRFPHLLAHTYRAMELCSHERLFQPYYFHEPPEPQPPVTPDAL

EC50 ([1]; RNase inhibition, read-out: EC50 (RNase biochemical assay), inhibitors) [µM] | EC50 ([2]; 100 nM thapsigargin stimulation, XBP1s mRNA decrease, read-out: EC50 (KMS-11 bDNA assay, XBP1s), inhibitors) [µM] | EC50 [1, 3] [µM] | EC50 [2, 4] [µM] | SMILES
0.017 ± 0.004 | 0.193 ± 0.036 |  |  | Cc1ccc2c(NS(=O)(=O)c3ccccc3Cl)cccc2c1Oc1ncccc1-c1ccnc(N[C@H]2CCCNC2)n1 [AMG-18]
 |  | 0.007 ± 0.001 | 0.223 ± 0.033 | CC#CC(=O)Nc1cccc2c(Oc3ncccc3-c3ccnc(N[C@H]4CCCNC4)n3)c(C)ccc12 [G-7658]
 |  | 0.018 ± 0.003 | 1.77 ± 0.691 | O=c1cc(-c2n[nH]c3ncc(-c4c(F)cccc4F)cc23)nc(N2CCC(O)CC2)[nH]1 [G-9807]

SMILES | EC50 ([1]; RNase inhibition, read-out: EC50 (RNase biochemical assay), inhibitors) [µM] | EC50 ([2]; 100 nM thapsigargin stimulation, XBP1s mRNA decrease, read-out: EC50 (KMS-11 bDNA assay, XBP1s), inhibitors) [µM] | EC50 [1, 3] [µM] | EC50 [2, 4] [µM]
CCOC(=O)Nc1cccc2c(Oc3ncccc3-c3ccnc(N[C@H]4CCCNC4)n3)c(C)ccc12 [G-1749] |  |  | 0.009 ± 0.003 | 1.31 ± 0.168
